Experimental data as given in patent US20220183279A1, “STABILIZED THIOKETONE FORMULATIONS” (priority 2019, published 2022).

Experiment: Effect of 5% by weight additives on prothioconazole in N,N-dimethyldecanamide, LED 350 nm, 24 hours
Format: physicochemical
Details: 0.4 g prothioconazole, 1.5 g N,N-dimethyldecanamide, 0.1 g stabiliser (5% by weight), 19 mW/cm^2, 24 hours, Comparison without additive 1539 ppm
Procedure: 0.4 g of prothioconazole, 1.5 g of N,N-dimethyldecanamide and 0.1 g of the respective stabiliser were combined in a 20 ml vial. The reaction mixtures were irradiated in a photoreactor with stirring (magnetic stirrer) using LED lamps (wavelength 350 nm, 19 mW/cm^2) for 24 hours. Samples were then taken and the respective content of compound III was determined by HPLC chromatography (column: Agilent Zorbax Eclipse Plus C18, 50×4.6 mm, 1.8 μm, mobile phase: acetonitrile/0.1% by weight of aqueous phosphoric acid, gradient at 2 ml/min, temperature: 45° C., external standard).

First: O=C(O)C=Cc1ccc(O)cc1 [4-Hydroxycinnamic acid]
Second: Cc1cc(C(C)(C)C)c(O)c(C(C)(C)C)c1 [Butylated hydroxytoluene (BHT), Butylated hydroxytoluene]
The “Compound III (ppm)” value of the first is higher: 2754 ppm for the first, 576 ppm for the second.

Compared with `O=C(O)/C=C/c1ccc(O)c(O)c1` [Caffeic acid], `CCCCC(CC)COC(=O)C(C#N)=C(c1ccccc1)c1ccccc1` (stereo not drawn) [Octocrylene] is higher in “Compound III (ppm)” value: 616 ppm for the first, 1377 ppm for the second.

Going from (+/−)-alpha-Tocopherol to `O[C@H](CS)[C@H](O)CS` (racemic) [DL-Dithiothreitol], the “Compound III (ppm)” value rises from 96 ppm to 749 ppm.

First: Cc1cc(O)cc2c1O[C@](C)(CCC[C@H](C)CCC[C@H](C)CCCC(C)C)CC2 [(+)-delta-Tocopherol]
Second: C=CCc1ccc(O)c(OC)c1 [Eugenol]
The “Compound III (ppm)” value of the first is lower: 81 ppm for the first, 580 ppm for the second.

First: O=C(O)CNC(=O)CCS [N-(Mercaptopropionyl)glycine]
Second: O=C(O)c1cc(O)c(O)c(O)c1 [Gallic acid]
The “Compound III (ppm)” value of the first is lower: 1102 ppm for the first, 3700 ppm for the second.

Compared with `COc1cc(/C=C/C(=O)O)ccc1O` [Ferulic acid], `COc1ccc(O)cc1` [4-Methoxyphenol] is lower in “Compound III (ppm)” value: 2059 ppm for the first, 1706 ppm for the second.
